The supplement of paper PMC10307832

Key:
Experiment in all cases: relative viability (nuclei count vs DMSO), 5 days (fraction); higher = more cells survive
[1] = compound: COc1cc(Nc2ncc(F)c(Nc3ccc4c(n3)NC(=O)C(C)(C)O4)n2)cc(OC)c1OC [R406] + O=C(c1cc(Cc2n[nH]c(=O)c3ccccc23)ccc1F)N1CCN(C(=O)C2CC2)CC1 [Olaparib] (partner 8 µM)
Summary of the method: (§1)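 Relative viability equals treated-well nuclei counts divided by vehicle-well nuclei counts. Counts came from 4× images of lung cancer cell lines grown in 1536-well plates for 5 days after pin-tool dosing on the day after seeding. Dosing used one drug alone or a fixed anchor-drug dose plus five library-drug doses (not always all listed) in √10 steps, and values are medians of duplicate plates.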

[2] = compound: O=C(/C=C/c1cccnc1)NCCCCC1CCN(C(=O)c2ccccc2)CC1 [Daporinad] + O=C(CCCCCCC(=O)Nc1ccccc1)NO [Vorinostat] (partner 1 µM)
Summary of the method: as §1

[3] = compound: COc1cc(Nc2ncc(F)c(Nc3ccc4c(n3)NC(=O)C(C)(C)O4)n2)cc(OC)c1OC [R406] + Nc1nc2[nH]cc(CCc3ccc(C(=O)N[C@@H](CCC(=O)O)C(=O)O)cc3)c2c(=O)[nH]1 [Pemetrexed] (partner 0.2 µM)
Summary of the method: as §1

[4] = compound: O=C(/C=C/c1cccnc1)NCCCCC1CCN(C(=O)c2ccccc2)CC1 [Daporinad] + CS(=O)(=O)N1CCN(Cc2cc3nc(-c4cccc5[nH]ncc45)nc(N4CCOCC4)c3s2)CC1 [Pictilisib] (partner 1 µM)
Summary of the method: as §1

LCLC-103H showed a relative viability ([1]; first compound 0.08 µM) of 0.77, a relative viability ([1]; first compound 0.253 µM) of 0.888 and a relative viability ([1]; first compound 0.8 µM) of 0.81. For the same cell line, the relative viability ([1]; first compound 2.53 µM) was 0.762, the relative viability ([1]; first compound 8 µM) was 0.302 and the relative viability ([2]; first compound 0.0005 µM) was 0.747. The relative viability ([2]; first compound 0.001581 µM) was 0.835, the relative viability ([2]; first compound 0.005 µM) was 0.864 and the relative viability ([2]; first compound 0.01581 µM) was 0.999. For the same cell line, the relative viability ([3]; first compound 0.08 µM) was 0.477, the relative viability ([3]; first compound 0.253 µM) was 0.462 and the relative viability ([3]; first compound 0.8 µM) was 0.486. It also gave a relative viability ([3]; first compound 2.53 µM) of 0.499, a relative viability ([3]; first compound 8 µM) of 0.376 and a relative viability ([4]; first compound 0.0005 µM) of 0.693. It also gave a relative viability ([4]; first compound 0.001581 µM) of 0.649, a relative viability ([4]; first compound 0.005 µM) of 0.619 and a relative viability ([4]; first compound 0.01581 µM) of 0.606.
Work on LK-2 yielded a relative viability ([1]; first compound 0.08 µM) of 0.592, a relative viability ([1]; first compound 0.253 µM) of 1.13 and a relative viability ([1]; first compound 0.8 µM) of 0.888. The relative viability ([1]; first compound 2.53 µM) was 0.661, the relative viability ([1]; first compound 8 µM) was 0.305 and the relative viability ([2]; first compound 0.0005 µM) was 0.28. The relative viability ([2]; first compound 0.001581 µM) was 0.331, the relative viability ([2]; first compound 0.005 µM) was 0.307 and the relative viability ([2]; first compound 0.01581 µM) was 0.256. The relative viability ([3]; first compound 0.08 µM) was 0.192, the relative viability ([3]; first compound 0.253 µM) was 0.326 and the relative viability ([3]; first compound 0.8 µM) was 0.38. For the same cell line, the relative viability ([3]; first compound 2.53 µM) was 0.191, the relative viability ([3]; first compound 8 µM) was 0.126 and the relative viability ([4]; first compound 0.0005 µM) was 0.605. For the same cell line, the relative viability ([4]; first compound 0.001581 µM) was 0.689, the relative viability ([4]; first compound 0.005 µM) was 0.46 and the relative viability ([4]; first compound 0.01581 µM) was 0.354.
LOU-NH91 was tested, and the relative viability ([1]; first compound 0.08 µM) was 0.898, the relative viability ([1]; first compound 0.253 µM) was 0.956 and the relative viability ([1]; first compound 0.8 µM) was 0.934. The relative viability ([1]; first compound 2.53 µM) was 0.658, the relative viability ([1]; first compound 8 µM) was 0.478 and the relative viability ([2]; first compound 0.0005 µM) was 0.929. For the same cell line, the relative viability ([2]; first compound 0.001581 µM) was 1.01, the relative viability ([2]; first compound 0.005 µM) was 1.1 and the relative viability ([2]; first compound 0.01581 µM) was 1.02. The relative viability ([3]; first compound 0.08 µM) was 0.362, the relative viability ([3]; first compound 0.253 µM) was 0.399 and the relative viability ([3]; first compound 0.8 µM) was 0.37. It also gave a relative viability ([3]; first compound 2.53 µM) of 0.455, a relative viability ([3]; first compound 8 µM) of 0.38 and a relative viability ([4]; first compound 0.0005 µM) of 0.528. It also gave a relative viability ([4]; first compound 0.001581 µM) of 0.568, a relative viability ([4]; first compound 0.005 µM) of 0.587 and a relative viability ([4]; first compound 0.01581 µM) of 0.577.
LU99A was tested, and the relative viability ([1]; first compound 0.08 µM) was 0.244, the relative viability ([1]; first compound 0.253 µM) was 0.258 and the relative viability ([1]; first compound 0.8 µM) was 0.267. For the same cell line, the relative viability ([1]; first compound 2.53 µM) was 0.218, the relative viability ([1]; first compound 8 µM) was 0.234 and the relative viability ([2]; first compound 0.0005 µM) was 0.499. For the same cell line, the relative viability ([2]; first compound 0.001581 µM) was 0.594, the relative viability ([2]; first compound 0.005 µM) was 0.545 and the relative viability ([2]; first compound 0.01581 µM) was 0.571. The relative viability ([3]; first compound 0.08 µM) was 0.188, the relative viability ([3]; first compound 0.253 µM) was 0.183 and the relative viability ([3]; first compound 0.8 µM) was 0.224. It also gave a relative viability ([3]; first compound 2.53 µM) of 0.187, a relative viability ([3]; first compound 8 µM) of 0.172 and a relative viability ([4]; first compound 0.0005 µM) of 0.312. The relative viability ([4]; first compound 0.001581 µM) was 0.383, the relative viability ([4]; first compound 0.005 µM) was 0.392 and the relative viability ([4]; first compound 0.01581 µM) was 0.306.
